Laboratory results taken from publication PMC4965013, “Open Source Drug Discovery with the Malaria Box Compound Collection for Neglected Diseases and Beyond” (PLoS Pathogens, 2016).

Tests used:
[1] = test system: P. falciparum; experiment: EC50 listed in S2 Table Metabolomics (used to set the concentration tested); assay type: cell-based; conditions: Plasmodium falciparum; EC50 used for Factor_XEC50 in metabolomics; read-out: EC50_nM
[2] = test system: P. falciparum 3D7 trophozoites; experiment: Metabolomic fingerprint profiling LC-MS; assay type: cell-based, Plasmodium falciparum; parameters: UDP-D-glucose / ADP-D-glucose: unit not given here; conditions: for Acetyllysine / N-acetyl-L-ornithine / N-carbamoyl-L-aspartate / NADPH / dAMP / dCMP / dTDP / dTMP / dTTP / dihydroorotate / orotate / DLH / DLS/SDL/SID / PD / PEE / PVNF / 3-phosphoglycerate / ADP-D-glucose / ATP / CDP / D-sedoheptulose-1/7-phosphate / FAD / GMP / NAD+ / NADP+ / Octoluse Bisphosphate / Pyroglutamic acid / UDP-D-glucose / UDP-D-glucuronate / UDP-N-acetyl-glucosamine / UDP / UMP / UTP / a-ketoglutarate / citrate/isocitrate / cytidine / dATP / dGMP/AMP / fumarate / glucose-1/6-phosphate / glycerate / guanine / guanosine / hypoxanthine / indole / inosine / nicotinate / ornithine / phosphoenolpyruvate / pyruvate / ribose-phosphate / sarcosine/alanine / sn-glycerol-3-phosphate / succinate/methylmalonic acid / uridine / xanthosine: S2 Table Metabolomics; for Acetyllysine: metabolite Acetyllysine; for N-acetyl-L-ornithine: metabolite N-acetyl-L-ornithine; for N-carbamoyl-L-aspartate: metabolite N-carbamoyl-L-aspartate; for NADPH: metabolite NADPH; for dAMP: metabolite dAMP; for dCMP: metabolite dCMP; for dTDP: metabolite dTDP; for dTMP: metabolite dTMP; for dTTP: metabolite dTTP; for dihydroorotate: metabolite dihydroorotate; for orotate: metabolite orotate; for DLH: peptide DLH; for DLS/SDL/SID: peptide DLS/SDL/SID; for PD: peptide PD; for PEE: peptide PEE; for PVNF: peptide PVNF; for 3-phosphoglycerate: metabolite 3-phosphoglycerate; for ADP-D-glucose: metabolite ADP-D-glucose; for ATP: metabolite ATP; for CDP: metabolite CDP; for CDP / D-sedoheptulose-1/7-phosphate / GMP / Octoluse Bisphosphate / UDP / UMP / UTP / citrate/isocitrate / dGMP/AMP / fumarate / glucose-1/6-phosphate / glycerate / guanine / guanosine / inosine / pyruvate / sarcosine/alanine / succinate/methylmalonic acid / uridine / xanthosine: change in metabolite level after compound treatment; for D-sedoheptulose-1/7-phosphate: metabolite D-sedoheptulose-1/7-phosphate; for FAD: metabolite FAD; for GMP: metabolite GMP; for NAD+: metabolite NAD+; for NADP+: metabolite NADP+; for Octoluse Bisphosphate: metabolite Octoluse Bisphosphate; for Pyroglutamic acid: metabolite Pyroglutamic acid; for UDP-D-glucose: metabolite UDP-D-glucose; for UDP-D-glucuronate: metabolite UDP-D-glucuronate; for UDP-N-acetyl-glucosamine: metabolite UDP-N-acetyl-glucosamine; for UDP: metabolite UDP; for UMP: metabolite UMP; for UTP: metabolite UTP; for a-ketoglutarate: metabolite a-ketoglutarate; for citrate/isocitrate: metabolite citrate/isocitrate; for cytidine: metabolite cytidine; for dATP: metabolite dATP; for dGMP/AMP: metabolite dGMP/AMP; for fumarate: metabolite fumarate; for glucose-1/6-phosphate: metabolite glucose-1/6-phosphate; for glycerate: metabolite glycerate; for guanine: metabolite guanine; for guanosine: metabolite guanosine; for hypoxanthine: metabolite hypoxanthine; for indole: metabolite indole; for inosine: metabolite inosine; for 2_3-Diphosphoglyceric acid / 4-phosphopantothenate / 6-phospho-D-gluconate / FMN / IMP / Pyrophosphate / Sedoheptoluse bisphosphate / cyclic-AMP / glutathione disulfide / lactate / myo-inositol: metabolite level change after treatment; for nicotinate: metabolite nicotinate; for ornithine: metabolite ornithine; for phosphoenolpyruvate: metabolite phosphoenolpyruvate; for pyruvate: metabolite pyruvate; for ribose-phosphate: metabolite ribose-phosphate; for sarcosine/alanine: metabolite sarcosine/alanine; for sn-glycerol-3-phosphate: metabolite sn-glycerol-3-phosphate; for succinate/methylmalonic acid: metabolite succinate/methylmalonic acid; for uridine: metabolite uridine; for xanthosine: metabolite xanthosine

## Cc1cc(C=C2SC(=Nc3ccccc3)N(C3CCCC3)C2=O)c(C)n1-c1ccc(Cl)cc1 [MMV666688]
[1]
  EC50: 263 nM
[2]
  Acetyllysine: -0.1624
  N-acetyl-L-ornithine: -0.0421
  N-carbamoyl-L-aspartate: 1.4864
  NADPH: 0.2408
  dAMP: 0.03218
  dCMP: -0.069
  dTDP: -0.4979
  dTMP: -0.4157
  dTTP: -0.4815
  dihydroorotate: 2.242
  orotate: -0.3391
  DLH: -0.1014
  DLS/SDL/SID: -0.07676
  PD: 0.01194
  PEE: -0.1091
  PVNF: -0.1399
  3-phosphoglycerate: -0.02892
  ADP-D-glucose: -0.07639
  ATP: -0.1967
  CDP: -0.456
  D-sedoheptulose-1/7-phosphate: -0.2168
  FAD: -0.003318
  GMP: 0.2544
  NAD+: -0.2173
  NADP+: -0.08704
  Octoluse Bisphosphate: -0.1579
  Pyroglutamic acid: 0.04307
  UDP-D-glucose: -0.04445
  UDP-D-glucuronate: -0.08539
  UDP-N-acetyl-glucosamine: -0.1189
  UDP: -0.6253
  UMP: -0.03143
  UTP: -0.1882
  a-ketoglutarate: 0.009693
  citrate/isocitrate: -0.05943
  cytidine: 0.03268
  dATP: 0.7542
  dGMP/AMP: -0.3421
  fumarate: -0.03259
  glucose-1/6-phosphate: 0.01665
  glycerate: 0.07227
  guanine: 0.07709
  guanosine: 0.1849
  hypoxanthine: 0.08201
  indole: 0.1358
  inosine: 0.04909
  2_3-Diphosphoglyceric acid: -0.2563
  4-phosphopantothenate: -0.1327
  6-phospho-D-gluconate: -0.08404
  FMN: -0.1061
  IMP: -0.002655
  Pyrophosphate: 0.3465
  Sedoheptoluse bisphosphate: -0.1911
  cyclic-AMP: -0.1214
  glutathione disulfide: -0.05112
  lactate: 0.01618
  myo-inositol: 0.01299
  nicotinate: -0.0155
  ornithine: -0.1088
  phosphoenolpyruvate: -0.02123
  pyruvate: 0.008296
  ribose-phosphate: -0.004186
  sarcosine/alanine: -0.1822
  sn-glycerol-3-phosphate: 0.09746
  succinate/methylmalonic acid: -0.05454
  uridine: -0.08058
  xanthosine: 0.111

## COc1ccc(C=C2SC(=N)N(c3ccccc3OC)C2=O)cc1 [MMV666691]
[1]
  EC50: 168 nM
[2]
  Acetyllysine: -0.06113
  N-acetyl-L-ornithine: -0.04858
  N-carbamoyl-L-aspartate: 3.121
  NADPH: 0.04672
  dAMP: -0.1913
  dCMP: 0.1375
  dTDP: -0.4485
  dTMP: -0.268
  dTTP: -0.128
  dihydroorotate: 3.607
  orotate: -0.9141
  DLH: 0.157
  DLS/SDL/SID: 0.06441
  PD: 0.6447
  PEE: 0.2278
  PVNF: 0.06954
  3-phosphoglycerate: -0.08972
  ADP-D-glucose: 0.2678
  ATP: 0.4861
  CDP: 0.2338
  D-sedoheptulose-1/7-phosphate: 0.4395
  FAD: 0.4218
  GMP: -0.5619
  NAD+: 0.2782
  NADP+: 0.1223
  Octoluse Bisphosphate: 0.2088
  Pyroglutamic acid: -0.1274
  UDP-D-glucose: 0.2576
  UDP-D-glucuronate: 0.2671
  UDP-N-acetyl-glucosamine: 0.2054
  UDP: -0.5559
  UMP: -0.8809
  UTP: -0.652
  a-ketoglutarate: -0.2164
  citrate/isocitrate: -0.06979
  cytidine: 0.2052
  dATP: 0.5778
  dGMP/AMP: -0.07557
  fumarate: 0.7045
  glucose-1/6-phosphate: 0.363
  glycerate: 0.3396
  guanine: 0.3707
  guanosine: 0.4982
  hypoxanthine: 0.09969
  indole: 0.002472
  inosine: 0.382
  2_3-Diphosphoglyceric acid: 0.1853
  4-phosphopantothenate: -0.1622
  6-phospho-D-gluconate: 0.4512
  FMN: 0.2558
  IMP: 0.07363
  Pyrophosphate: 0.16
  Sedoheptoluse bisphosphate: 0.2481
  cyclic-AMP: 0.2139
  glutathione disulfide: 0.5647
  lactate: 0.06184
  myo-inositol: 0.08809
  nicotinate: 0.1482
  ornithine: 0.1318
  phosphoenolpyruvate: -0.1506
  pyruvate: -0.3002
  ribose-phosphate: 0.1031
  sarcosine/alanine: 0.4028
  sn-glycerol-3-phosphate: 0.3221
  succinate/methylmalonic acid: 0.3253
  uridine: -0.3469
  xanthosine: 0.6937
